Consider seven compounds from US20240300910A1, “NITROTHIAZOLE DERIVATIVE AND APPLICATION THEREOF” (CHENGDU BIOBEL BIOTECHNOLOGY CO., LTD., priority 2021, published 2024).

The subject of assay [1] is Clostridium difficile ATCC BBA1870. As to the kind of experiment: In vitro MIC, agar dilution, Clostridium difficile ATCC BBA1870. In kind it is cell-based. The note with it: Clostridioides difficile, ATCCBBA1870, 48 h, read-out: MIC values, Clostridium difficile ATCC BBA1870. On the technique in general: In agar dilution the substance is mixed into plates at graded concentrations.

For assay [2], the system named is Clostridium difficile ATCC 630. Put plainly: In vitro MIC, agar dilution, Clostridium difficile ATCC 630. It is filed as cell-based. The note with it: Clostridioides difficile, read-out: MIC values, Clostridium difficile ATCC 630.
The subject of assay [3] is Clostridium difficile ATCC 700057. Put plainly: In vitro MIC, agar dilution, Clostridium difficile ATCC 700057. In kind it is cell-based. The note with it: Clostridioides difficile, read-out: MIC values, Clostridium difficile ATCC 700057.
Assay [4] concerns Clostridium difficile spores (ATCC 630 strain). Put plainly: Treatment of Clostridium difficile infection in golden hamsters. In kind it is in vivo. The note with it: golden hamsters challenged with C. difficile spores; for time after drug withdrawal at which deaths occurred / began: drugs removed from the 21st day; for survival / mortality after drug withdrawal, observed until the 45th day: twice a day for 20 days (I-3 100 mg/kg, vancomycin 10 mg/kg, fidaxomicin 10 mg/kg, nitazoxanide 100 mg/kg). The procedure:
60 of 5-week-old male golden hamsters, weighing 70-90 g, were purchased from Beijing Vital River Laboratory Animal Technology Co., Ltd. After one week of adaptive feeding, golden hamsters were randomly divided into six groups. The model group and four test groups were orally administrated 10 mg/kg clindamycin, while the blank group was given the same volume of normal saline, and this day was recorded as day −1. On day 0, the model group and the test groups were challenged with Clostridium difficile spores (ATCC 630 strain), and each hamster received 5E4 spores. The blank group was not treated. Starting from the first day, four test groups were administered 100 mg/kg of compound I-3 according to the present invention, 10 mg/kg of vancomycin, 10 mg/kg of fidaxomicin, and 100 mg/kg of nitazoxanide twice a day, respectively; the blank group and the model group were given equal amounts of normal saline for a total of 20 days. During this period, the changes in weight, the diarrhea, and the mortality of animals were observed. Starting from the 21st day, the drugs were removed, but the observation was continued until the 45th day.

For assay [5], the system named is Enterococcus faecalis ATCC19433. As to the kind of experiment: Selectivity on intestinal probiotics, MIC, agar dilution. In kind it is cell-based. The note with it: read-out: MIC value, Enterococcus faecalis ATCC19433. The protocol:
(§1) ATCC19435, Lactobacillus rhamnosus ATCC7469, Lactobacillus bulgaricus ATCC11842, and the test was performed using Brucella agar medium. The strains frozen at −80° C. were seeded in solid agar medium. The medium was placed in a 37° C. incubator and anaerobically cultivated for 24-48 h. […] For compound I-3 of the present invention, a high concentration (100× test concentration) of working solution was prepared and used on the same day, and 100% DMSO was used as the solvent. As for the preparation of each agar plate for each diluted concentration, 20 μl of high concentration working solution was mixed with 2 ml of melted Brucella agar with supplements (45-55° C.), and then added to a 6-well plate for solidification. 1% DMSO was used as growth control. On the day of the experiment, an appropriate amount of single bacterial colony was selected and suspended in physiological saline. A turbidity meter was used to adjust the turbidity of the bacterial solution to OD600=0.2, and thus the density was about 1×10^8 CFU/ml. 2 μl of such bacterial solution was directly seeded on a solid dilution agar plate of each compound. […] Then, all of the test plates were subjected to anaerobic cultivation at 35±2° C. for 48 h.

For assay [6], the system named is Lactobacillus rhamnosus ATCC7469. The assay is described as above. It is filed as cell-based. The note with it: Lacticaseibacillus rhamnosus, read-out: MIC value, Lactobacillus rhamnosus ATCC7469. The procedure: as §1
In assay [7] the test system is Lactobacillus bulgaricus ATCC11842. The description is as above. It is filed as cell-based. The note with it: read-out: MIC value, Lactobacillus bulgaricus ATCC11842. The protocol: as §1
A further assay has as its system ATCC BAA-835. The description is as above. In kind it is cell-based. The note with it: read-out: MIC value, ATCC BAA-835. The protocol:
as §1

The test system of assay [8] is Bifidobacterium bifidum CGMCC NO.1.5091. The description is as above. In kind it is cell-based. The note with it: read-out: MIC value, Bifidobacterium bifidum CGMCC NO.1.5091. The procedure: as §1
Assay [9] concerns Lactococcus lactis subsp. ATCC19435. Described as above. It is filed as cell-based. The note with it: read-out: MIC value, Lactococcus lactis subsp. ATCC19435. The procedure: as §1
The test system of assay [10] is Lactobacillus acidophilus ATCC4356. The description is as above. In kind it is cell-based. The note with it: read-out: MIC value, Lactobacillus acidophilus ATCC4356. The protocol:
as §1

Where [11] appears, read: ATCC630, Brucella agar with supplements, anaerobic cultivation 48 h.
Setting [12] is: ATCC700057, Brucella agar with supplements, anaerobic cultivation 48 h.
[13] abbreviates: ATCC19433, probiotic strain, Brucella agar, anaerobic cultivation 48 h.
Setting [14] is: ATCC7469, probiotic strain, Brucella agar, anaerobic cultivation 48 h.
The mark [15] stands for this setting: ATCC11842, probiotic strain, Brucella agar, anaerobic cultivation 48 h.
[16] abbreviates: probiotic strain, Brucella agar, anaerobic cultivation 48 h.
Where [17] appears, read: CGMCC1, probiotic strain, Brucella agar, anaerobic cultivation 48 h.
[18] abbreviates: ATCC19435, probiotic strain, Brucella agar, anaerobic cultivation 48 h.
[19] abbreviates: ATCC4356, probiotic strain, Brucella agar, anaerobic cultivation 48 h.

≈ marks a conversion by molar mass, not a printed value. Read-outs that look alike come from different tables or passages of the source.

The term MIC denotes the least concentration at which growth counts as inhibited. Regarding `CCCC(=O)Oc1ccccc1C(=O)Nc1ncc([N+](=O)[O-])s1` [Compound I-1], the MIC in assay [1] stood at 0.25 µg/mL (≈ 0.746 µM); in assay [2] (setting [11]), 0.0625 µg/mL (≈ 0.186 µM); in assay [3] (setting [12]), 0.25 µg/mL (≈ 0.746 µM).

With `CCCCCCCC(=O)Oc1ccccc1C(=O)Nc1ncc([N+](=O)[O-])s1` [Compound I-2], the minimal inhibitory concentration (MIC) was determined as 0.25 µg/mL (≈ 0.639 µM) in assay [1], 0.0625 µg/mL (≈ 0.16 µM) in [2] (setting [11]) and 0.25 µg/mL (≈ 0.639 µM) in assay [3] (setting [12]).

As to `CCCCCCCCCCCC(=O)Oc1ccccc1C(=O)Nc1ncc([N+](=O)[O-])s1` [Compound I-3], the “time after drug withdrawal at which deaths occurred / began” value in assay [4] is 7 days. In addition, the “survival / mortality after drug withdrawal, observed until the 45th day” value (“survival / mortality” for short) in [4] is reported as “only one animal died”. In addition, the MIC in assay [1] is 0.125 µg/mL (≈ 0.279 µM); in assay [2] (setting [11]) it was 0.0625 µg/mL (≈ 0.14 µM); in assay [3] (setting [12]) it was 0.0625 µg/mL (≈ 0.14 µM); in assay [5] (setting [13]), 256 µg/mL (≈ 572 µM); in [6] (setting [14]), > 256 µg/mL; in [7] (setting [15]), > 256 µg/mL. For the same compound, the MIC in the assay with ATCC BAA-835 (setting [16]) was 128 µg/mL (≈ 286 µM); in assay [8] (setting [17]) it was 128 µg/mL (≈ 286 µM); in assay [9] (setting [18]) it was 256 µg/mL (≈ 572 µM); in assay [10] (setting [19]), > 256 µg/mL.

Take `CCCCCCCCCCCCCC(=O)Oc1ccccc1C(=O)Nc1ncc([N+](=O)[O-])s1` [Compound I-4]: the values for the MIC in assay [1], in assay [2] (setting [11]) and in [3] (setting [12]) were 0.25 µg/mL (≈ 0.526 µM), 0.0625 µg/mL (≈ 0.131 µM) and 0.125 µg/mL (≈ 0.263 µM), respectively.

Turning to `CCc1c(Cl)c(O)c(Cl)c(O)c1C(=O)O[C@H]1[C@H](O)[C@H](OC)[C@H](OC/C2=C\C=C\C[C@H](O)/C(C)=C/[C@H](CC)[C@@H](O[C@@H]3OC(C)(C)[C@@H](OC(=O)C(C)C)[C@H](O)[C@@H]3O)/C(C)=C/C(C)=C/C[C@@H]([C@@H](C)O)OC2=O)O[C@@H]1C` [fidaxomicin], the “time after drug withdrawal at which deaths occurred / began” value in [4] stood at 15 days. Further, the “survival / mortality” value in assay [4] was “all of them died”. In addition, the MIC in [5] (setting [13]) is 1 µg/mL (≈ 0.945 µM); in assay [6] (setting [14]) it was 16 µg/mL (≈ 15.1 µM); in assay [7] (setting [15]), 128 µg/mL (≈ 121 µM); in the assay on ATCC BAA-835 (setting [16]), 1 µg/mL (≈ 0.945 µM); in assay [8] (setting [17]), 4 µg/mL (≈ 3.78 µM); in [9] (setting [18]), 64 µg/mL (≈ 60.5 µM). Also, the MIC in [10] (setting [19]) was found to be 128 µg/mL (≈ 121 µM).

Turning to `CC(=O)Oc1ccccc1C(=O)Nc1ncc([N+](=O)[O-])s1` [nitazoxanide, Nitazoxanide], the “survival / mortality” value in assay [4] is reported as “four hamsters in the nitroxide group survived”. Moreover, the MIC in assay [1] was 0.5 µg/mL (≈ 1.63 µM); in [2] (setting [11]), 0.125 µg/mL (≈ 0.407 µM); in assay [3] (setting [12]) it was 0.125 µg/mL (≈ 0.407 µM); in assay [5] (setting [13]), 64 µg/mL (≈ 208 µM); in [6] (setting [14]), 256 µg/mL (≈ 833 µM); in [7] (setting [15]), 64 µg/mL (≈ 208 µM). The MIC in the assay with ATCC BAA-835 (setting [16]) was determined as 1 µg/mL (≈ 3.25 µM); in assay [8] (setting [17]), 32 µg/mL (≈ 104 µM); in assay [9] (setting [18]) it was 8 µg/mL (≈ 26 µM); in assay [10] (setting [19]), 64 µg/mL (≈ 208 µM).

For `CN[C@H](CC(C)C)C(=O)N[C@H]1C(=O)N[C@@H](CC(N)=O)C(=O)N[C@H]2C(=O)N[C@H]3C(=O)N[C@H](C(=O)N[C@H](C(=O)O)c4cc(O)cc(O)c4-c4cc3ccc4O)[C@H](O)c3ccc(c(Cl)c3)Oc3cc2cc(c3O[C@@H]2O[C@H](CO)[C@@H](O)[C@H](O)[C@H]2O[C@H]2C[C@](C)(N)[C@H](O)[C@H](C)O2)Oc2ccc(cc2Cl)[C@H]1O` [vancomycin], the “survival / mortality” value in [4] is given as “all hamsters in the vancomycin group died”. In addition, the MIC is 1 µg/mL (≈ 0.69 µM) in assay [1]; 2 µg/mL (≈ 1.38 µM) in [2] (ATCC630, 48 h); 1 µg/mL (≈ 0.69 µM) in assay [3] (ATCC700057, 48 h); 4 µg/mL (≈ 2.76 µM) in [5] (ATCC19433, 48 h); 256 µg/mL (≈ 177 µM) in assay [6] (ATCC7469, 48 h); > 256 µg/mL in [7] (ATCC11842, 48 h). The MIC in the assay on ATCC BAA-835 (48 h) is 8 µg/mL (≈ 5.52 µM); in assay [8] (CGMCC1, 48 h) it was 4 µg/mL (≈ 2.76 µM); in assay [9] (ATCC19435, 48 h), 4 µg/mL (≈ 2.76 µM); in [10] (ATCC4356, 48 h) it was 4 µg/mL (≈ 2.76 µM).
